Laboratory results taken from patent US9834571B2, “Compounds for inhibiting cell proliferation in EGFR-driven cancers” (ARIAD Pharmaceuticals, Inc., priority 2012, dated 2017).

Legend:
[1] = target: human EGFR (native sequence) (Homo sapiens, UniProt P00533); experiment: Kinase inhibitory activity against human EGFR (native sequence); type: biochemical; conditions: human EGFR native sequence; 10 μM ATP; read-out: IC50 for kinase inhibition, EGFR
Procedure: (§1) Kinase inhibitory activity of the compounds was measured against human EGFR (native sequence) and against EGFR bearing the L858R mution and the L858R/T790M double mutation (EGFR, L858R, and L858R/T790M, respectively in Table 1). Additional assays can be conducted with EGFR deletion mutants such as delE746-A750 with or without the additional T790M mutation. Assay conditions included 10 pt curves with 3 μM top concentration (singlicates) and 10 μM ATP.

[2] = target: EGFR L858R (Homo sapiens, UniProt P00533, L858R); experiment: Kinase inhibitory activity against EGFR bearing the L858R mutation; type: biochemical; conditions: EGFR L858R; 10 μM ATP; read-out: IC50 for kinase inhibition, EGFR L858R
Procedure: as §1

[3] = target: EGFR L858R/T790M (Homo sapiens, UniProt P00533, L858R/T790M); experiment: Kinase inhibitory activity against EGFR bearing the L858R/T790M double mutation; type: biochemical; conditions: EGFR L858R/T790M double mutation; 10 μM ATP; read-out: IC50 for kinase inhibition, EGFR L858R T790M
Procedure: as §1

[4] = target: T1, BaF3 cells expressing the target EGFR mutations (Homo sapiens, UniProt P00533, T790M, cells depend on it, form not given); experiment: Antiproliferative activity (MTT) against BaF3 cells expressing the target EGFR mutations; type: cell-based; conditions: BAF3 EGFR DEL T790M PURO POOL cells, read-out: IC50, BAF3 EGFR DEL T790M PURO POOL
T1 construct: IC50, BAF3 EGFR DEL T790M PURO POOL; other: BAF3 EGFR DEL T790M PURO POOL cells, MTT; other: BAF3 EGFR DEL T790M PURO POOL cells; MTT
Procedure: (§2) We also assessed the antiproliferative activity of compounds of Formula (I) against BaF3 cells expressing the target EGFR mutations or control (i.e., cell lines expressing wildtype EGFR). Assays were conducted using MTT.

[5] = target: T2, BaF3 cells expressing the target EGFR mutations (Homo sapiens, UniProt P00533, T790M/L858R, cells depend on it); experiment: as above; type: cell-based; conditions: BAF3 EGFR L858R-T790M PURO POOL cells, read-out: IC50, BAF3 EGFR L858R-T790M PURO POOL
T2 construct: IC50, BAF3 EGFR L858R-T790M PURO POOL; other: BAF3 EGFR L858R-T790M PURO POOL cells, MTT; IC50, BAF3 EGFR L858R-T790M PURO POOL; other: BAF3 EGFR L858R-T790M PURO POOL cells; MTT
Procedure: as §2

[6] = tested on: BaF3 cells expressing wildtype EGFR; experiment: Antiproliferative activity (MTT) against control BaF3 cells expressing wildtype EGFR; type: cell-based; conditions: Mus musculus, BAF3 PARENTAL cells (control)
Procedure: as §2

EGFR L858R, sequence (P00533 25-1210 L858R): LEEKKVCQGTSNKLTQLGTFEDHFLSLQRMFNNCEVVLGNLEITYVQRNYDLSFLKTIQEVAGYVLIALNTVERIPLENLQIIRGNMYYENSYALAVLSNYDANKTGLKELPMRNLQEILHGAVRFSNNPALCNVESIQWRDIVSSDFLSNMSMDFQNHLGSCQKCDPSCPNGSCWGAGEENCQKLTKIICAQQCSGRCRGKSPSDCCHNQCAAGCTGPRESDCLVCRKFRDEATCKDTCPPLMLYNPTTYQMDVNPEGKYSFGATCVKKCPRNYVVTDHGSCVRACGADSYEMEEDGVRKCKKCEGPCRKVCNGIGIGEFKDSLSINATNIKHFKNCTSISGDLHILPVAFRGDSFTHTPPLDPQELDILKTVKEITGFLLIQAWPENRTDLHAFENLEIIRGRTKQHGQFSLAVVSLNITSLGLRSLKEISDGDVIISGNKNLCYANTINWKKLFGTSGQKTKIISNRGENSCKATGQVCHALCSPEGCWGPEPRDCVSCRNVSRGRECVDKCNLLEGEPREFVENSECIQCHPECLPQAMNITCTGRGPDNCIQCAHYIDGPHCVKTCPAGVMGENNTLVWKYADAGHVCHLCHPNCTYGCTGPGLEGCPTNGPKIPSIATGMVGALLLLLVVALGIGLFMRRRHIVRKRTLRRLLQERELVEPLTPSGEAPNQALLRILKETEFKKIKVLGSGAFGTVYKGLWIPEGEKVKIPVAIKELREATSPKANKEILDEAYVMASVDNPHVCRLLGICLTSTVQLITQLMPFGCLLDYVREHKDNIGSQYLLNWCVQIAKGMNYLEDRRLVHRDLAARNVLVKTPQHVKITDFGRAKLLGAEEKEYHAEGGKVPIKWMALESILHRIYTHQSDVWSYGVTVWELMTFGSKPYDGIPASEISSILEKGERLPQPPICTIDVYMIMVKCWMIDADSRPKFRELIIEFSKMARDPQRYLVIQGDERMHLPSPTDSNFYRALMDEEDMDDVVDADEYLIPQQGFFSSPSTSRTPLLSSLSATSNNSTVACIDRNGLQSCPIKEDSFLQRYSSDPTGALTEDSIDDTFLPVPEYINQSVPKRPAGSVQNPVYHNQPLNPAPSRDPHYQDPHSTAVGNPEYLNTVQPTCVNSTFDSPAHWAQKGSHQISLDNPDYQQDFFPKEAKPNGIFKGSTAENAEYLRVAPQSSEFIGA
human EGFR (native sequence), sequence (P00533 25-1210): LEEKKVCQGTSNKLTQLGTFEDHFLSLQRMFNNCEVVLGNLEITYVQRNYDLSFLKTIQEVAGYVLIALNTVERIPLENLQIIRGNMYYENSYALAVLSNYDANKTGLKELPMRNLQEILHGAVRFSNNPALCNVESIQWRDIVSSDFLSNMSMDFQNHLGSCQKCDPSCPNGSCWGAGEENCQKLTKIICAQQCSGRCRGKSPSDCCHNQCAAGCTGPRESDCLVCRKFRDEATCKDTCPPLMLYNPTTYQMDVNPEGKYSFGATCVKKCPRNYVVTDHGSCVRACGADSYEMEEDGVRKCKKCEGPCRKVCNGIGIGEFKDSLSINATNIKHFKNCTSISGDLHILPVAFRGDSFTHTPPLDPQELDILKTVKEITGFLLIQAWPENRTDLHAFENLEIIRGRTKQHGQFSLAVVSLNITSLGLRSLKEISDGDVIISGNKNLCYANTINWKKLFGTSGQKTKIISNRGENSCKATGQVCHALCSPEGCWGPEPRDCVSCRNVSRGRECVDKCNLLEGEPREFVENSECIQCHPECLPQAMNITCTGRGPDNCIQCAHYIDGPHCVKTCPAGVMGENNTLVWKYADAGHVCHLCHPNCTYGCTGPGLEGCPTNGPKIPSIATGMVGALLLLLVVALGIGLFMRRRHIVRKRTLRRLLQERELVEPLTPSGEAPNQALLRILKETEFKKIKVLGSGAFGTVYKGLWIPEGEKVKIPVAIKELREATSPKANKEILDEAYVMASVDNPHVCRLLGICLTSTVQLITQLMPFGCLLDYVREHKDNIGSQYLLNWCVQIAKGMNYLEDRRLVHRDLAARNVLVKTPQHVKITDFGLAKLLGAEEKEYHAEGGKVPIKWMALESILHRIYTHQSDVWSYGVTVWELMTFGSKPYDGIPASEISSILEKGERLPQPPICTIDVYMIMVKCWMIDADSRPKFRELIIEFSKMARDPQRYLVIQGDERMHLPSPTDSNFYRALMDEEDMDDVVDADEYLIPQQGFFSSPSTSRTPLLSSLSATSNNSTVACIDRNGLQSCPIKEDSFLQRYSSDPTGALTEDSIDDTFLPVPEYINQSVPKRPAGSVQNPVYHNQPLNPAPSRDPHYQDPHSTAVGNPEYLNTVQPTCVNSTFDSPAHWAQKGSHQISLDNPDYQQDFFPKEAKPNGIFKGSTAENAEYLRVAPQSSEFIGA
T2 sequence (P00533 whole entry T790M/L858R): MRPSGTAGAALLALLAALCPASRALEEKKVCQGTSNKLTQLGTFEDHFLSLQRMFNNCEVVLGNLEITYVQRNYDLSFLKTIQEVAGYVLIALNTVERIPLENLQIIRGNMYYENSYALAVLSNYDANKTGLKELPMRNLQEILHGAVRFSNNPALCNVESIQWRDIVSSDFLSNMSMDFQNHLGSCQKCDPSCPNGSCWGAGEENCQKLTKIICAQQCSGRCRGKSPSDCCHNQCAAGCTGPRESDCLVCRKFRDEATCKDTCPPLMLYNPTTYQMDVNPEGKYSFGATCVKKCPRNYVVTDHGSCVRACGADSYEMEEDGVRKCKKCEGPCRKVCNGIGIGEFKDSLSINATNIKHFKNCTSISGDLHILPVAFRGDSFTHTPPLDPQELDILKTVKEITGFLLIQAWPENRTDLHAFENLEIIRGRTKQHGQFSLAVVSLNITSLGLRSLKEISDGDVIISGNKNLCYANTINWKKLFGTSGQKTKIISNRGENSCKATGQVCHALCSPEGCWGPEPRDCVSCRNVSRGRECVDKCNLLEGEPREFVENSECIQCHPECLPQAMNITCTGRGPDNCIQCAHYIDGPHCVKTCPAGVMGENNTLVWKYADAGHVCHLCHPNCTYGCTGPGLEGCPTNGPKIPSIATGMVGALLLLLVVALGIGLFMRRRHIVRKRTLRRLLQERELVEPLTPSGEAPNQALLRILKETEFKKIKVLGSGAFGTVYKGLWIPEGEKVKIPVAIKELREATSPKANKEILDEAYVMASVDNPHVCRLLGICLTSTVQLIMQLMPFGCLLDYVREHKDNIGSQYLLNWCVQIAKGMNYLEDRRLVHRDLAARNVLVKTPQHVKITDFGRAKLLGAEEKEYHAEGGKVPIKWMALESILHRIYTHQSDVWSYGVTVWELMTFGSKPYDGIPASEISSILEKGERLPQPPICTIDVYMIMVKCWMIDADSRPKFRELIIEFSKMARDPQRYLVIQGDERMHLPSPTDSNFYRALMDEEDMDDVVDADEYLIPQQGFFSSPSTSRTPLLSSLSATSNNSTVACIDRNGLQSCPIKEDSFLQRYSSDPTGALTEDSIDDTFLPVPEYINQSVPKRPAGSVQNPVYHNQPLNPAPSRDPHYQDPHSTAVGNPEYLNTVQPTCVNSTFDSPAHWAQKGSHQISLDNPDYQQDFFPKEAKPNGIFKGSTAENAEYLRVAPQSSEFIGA
EGFR L858R/T790M, sequence (P00533 25-1210 T790M/L858R): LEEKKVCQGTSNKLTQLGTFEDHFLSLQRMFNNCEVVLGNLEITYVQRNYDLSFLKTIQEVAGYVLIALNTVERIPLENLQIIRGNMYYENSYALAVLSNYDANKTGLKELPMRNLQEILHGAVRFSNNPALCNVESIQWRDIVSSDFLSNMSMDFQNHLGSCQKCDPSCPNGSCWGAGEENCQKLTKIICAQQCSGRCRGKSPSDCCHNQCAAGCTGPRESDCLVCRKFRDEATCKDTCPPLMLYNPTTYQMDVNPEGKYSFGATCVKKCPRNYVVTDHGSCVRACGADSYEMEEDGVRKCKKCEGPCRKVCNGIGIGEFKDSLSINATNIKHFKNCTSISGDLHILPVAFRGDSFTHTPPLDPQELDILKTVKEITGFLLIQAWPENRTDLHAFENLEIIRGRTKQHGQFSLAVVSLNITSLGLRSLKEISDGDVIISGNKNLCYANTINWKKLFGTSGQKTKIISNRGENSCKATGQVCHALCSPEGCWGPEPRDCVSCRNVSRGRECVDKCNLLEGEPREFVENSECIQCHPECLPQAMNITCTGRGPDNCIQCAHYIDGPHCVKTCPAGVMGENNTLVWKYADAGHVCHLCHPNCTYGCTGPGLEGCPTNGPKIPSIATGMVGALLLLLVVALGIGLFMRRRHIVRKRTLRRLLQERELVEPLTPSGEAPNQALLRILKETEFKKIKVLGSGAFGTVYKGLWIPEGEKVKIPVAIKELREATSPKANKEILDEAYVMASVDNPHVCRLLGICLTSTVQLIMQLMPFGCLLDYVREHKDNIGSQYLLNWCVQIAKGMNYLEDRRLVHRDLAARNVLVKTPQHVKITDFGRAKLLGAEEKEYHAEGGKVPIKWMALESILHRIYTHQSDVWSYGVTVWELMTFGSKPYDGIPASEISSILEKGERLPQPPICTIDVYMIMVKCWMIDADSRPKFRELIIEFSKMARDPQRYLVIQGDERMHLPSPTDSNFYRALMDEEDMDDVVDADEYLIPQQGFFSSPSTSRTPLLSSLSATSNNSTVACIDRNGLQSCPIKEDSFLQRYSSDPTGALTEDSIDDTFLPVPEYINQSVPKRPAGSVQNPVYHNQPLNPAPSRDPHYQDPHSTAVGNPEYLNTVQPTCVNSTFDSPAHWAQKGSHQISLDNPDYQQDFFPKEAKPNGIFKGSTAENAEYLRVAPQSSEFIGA

| IC50 [1] [nM] | IC50 [2] [nM] | IC50 [3] [nM] | GI50 [4] [nM] | GI50 [5] [nM] | SMILES | IC50 [6] [nM] |
| --- | --- | --- | --- | --- | --- | --- |
| 101 to 250 | < 50 | < 50 | 101 to 250 | 101 to 250 | C=CC(=O)Nc1cc(Nc2ncc(Cl)c(Nc3ccccc3P(C)(C)=O)n2)c(OC)cc1OCCCN1CCOCC1 [Example 5, N-(5-((5-chloro-4-((2-(dimethylphosphoryl)phenyl)amino)pyrimidin-2-yl)amino)-4-methoxy-2-(3-morpholinopropoxy)phenyl)acrylamide] | ≥ 250 |
| ≥ 250 | < 50 | 50 to 100 | 50 to 100 | 101 to 250 | C=CC(=O)Nc1cc(Nc2ncc(Cl)c(Nc3ccccc3P(C)(C)=O)n2)c(OC)cc1OCC1CCOCC1 [Example 6, N-(5-((5-chloro-4-((2-(dimethylphosphoryl)phenyl)amino)pyrimidin-2-yl)amino)-4-methoxy-2-((tetrahydro-2H-pyran-4-yl)methoxy)phenyl)acrylamide] | ≥ 250 |
| < 50 | < 50 | < 50 | < 50 | < 50 | C=CC(=O)Nc1cc(Nc2ncc(Cl)c(Nc3ccccc3P(C)(C)=O)n2)c(OC)cc1OCC1CCCCN1C (stereo not drawn) [Example 7, N-(5-((5-chloro-4-((2-(dimethylphosphoryl)phenyl)amino)pyrimidin-2-yl)amino)-4-methoxy-2-((1-methylpiperidin-2-yl)methoxy)phenyl)acrylamide] | ≥ 250 |
| < 50 | < 50 | < 50 | < 50 | < 50 | C=CC(=O)Nc1cc(Nc2ncc(Cl)c(Nc3ccccc3P(C)(C)=O)n2)c(OC)cc1OCCN1CCCCC1 [Example 8, N-(5-((5-chloro-4-((2-(dimethylphosphoryl)phenyl)amino)pyrimidin-2-yl)amino)-4-methoxy-2-(2-(piperidin-1-yl)ethoxy)phenyl)acrylamide] | ≥ 250 |
| ≥ 250 | < 50 | < 50 | < 50 | 50 to 100 | C=CC(=O)Nc1cc(Nc2ncc(Cl)c(Nc3ccccc3P(C)(C)=O)n2)c(OC)cc1OC1COC1 [Example 9, N-(5-((5-chloro-4-((2-(dimethylphosphoryl)phenyl)amino)pyrimidin-2-yl)amino)-4-methoxy-2-(oxetan-3-yloxy)phenyl)acrylamide] | ≥ 250 |
| 50 to 100 | < 50 | < 50 | 50 to 100 | 101 to 250 | C=CC(=O)Nc1cc(Nc2ncc(Cl)c(Nc3ccccc3P(C)(C)=O)n2)c(OC)cc1OCc1cccnc1 [Example 10, N-(5-((5-chloro-4-((2-(dimethylphosphoryl)phenyl)amino)pyrimidin-2-yl)amino)-4-methoxy-2-(pyridin-3-ylmethoxy)phenyl)acrylamide] | ≥ 250 |
| < 50 | < 50 | < 50 | < 50 | 101 to 250 | C=CC(=O)Nc1cc(Nc2ncc(Cl)c(Nc3ccccc3P(C)(C)=O)n2)c(OC)cc1OCc1ccncc1 [Example 11, N-(5-((5-chloro-4-((2-(dimethylphosphoryl)phenyl)amino)pyrimidin-2-yl)amino)-4-methoxy-2-(pyridin-4-ylmethoxy)phenyl)acrylamide] | ≥ 250 |
| < 50 | < 50 | < 50 | < 50 | < 50 | C=CC(=O)Nc1cc(Nc2ncc(Cl)c(Nc3ccccc3P(C)(C)=O)n2)c(OC)cc1OC1CCCN(C)C1 (stereo not drawn) [Example 12, N-(5-((5-chloro-4-((2-(dimethylphosphoryl)phenyl)amino)pyrimidin-2-yl)amino)-4-methoxy-2-((1-methylpiperidin-3-yl)oxy)phenyl)acrylamide] | ≥ 250 |
| < 50 | < 50 | < 50 | < 50 | < 50 | C=CC(=O)Nc1cc(Nc2ncc(Cl)c(Nc3ccccc3P(C)(C)=O)n2)c(OC)cc1OC1CCN(C)C1 (stereo not drawn) [Example 13, N-(5-((5-chloro-4-((2-(dimethylphosphoryl)phenyl)amino)pyrimidin-2-yl)amino)-4-methoxy-2-((1-methylpyrrolidin-3-yl)oxy)phenyl)acrylamide] | ≥ 250 |
| < 50 | < 50 | < 50 | < 50 | < 50 | C=CC(=O)Nc1cc(Nc2ncc(Cl)c(Nc3ccccc3P(C)(C)=O)n2)c(OC)cc1OC(COC)CN1CCC1 (stereo not drawn) [Example 15, N-(2-((1-(azetidin-1-yl)-3-methoxypropan-2-yl)oxy)-5-((5-chloro-4-((2-(dimethylphosphoryl)phenyl)amino)pyrimidin-2-yl)amino)-4-methoxyphenyl)acrylamide] | ≥ 250 |
| < 50 | < 50 | < 50 | 50 to 100 | 50 to 100 | C=CC(=O)Nc1cc(Nc2ncc(Cl)c(Nc3ccccc3P(C)(C)=O)n2)c(OC)cc1N1CCC(N2CCN(C)CC2)CC1 [Example 22, N-(5-((5-chloro-4-((2-(dimethylphosphoryl)phenyl)amino)pyrimidin-2-yl)amino)-4-methoxy-2-(4-(4-methylpiperazin-1-yl)piperidin-1-yl)phenyl)acrylamide] | ≥ 250 |
| < 50 | < 50 | < 50 | < 50 | 101 to 250 | C=CC(=O)Nc1cc(Nc2ncc(Cl)c(Nc3ccccc3P(C)(C)=O)n2)c(OC)cc1N1CCC(N(C)C)CC1 [Example 23, N-(5-((5-chloro-4-((2-(dimethylphosphoryl)phenyl)amino)pyrimidin-2-yl)amino)-2-(4-(dimethylamino)piperidin-1-yl)-4-methoxyphenyl)acrylamide] | ≥ 250 |
| < 50 | < 50 | < 50 | < 50 | < 50 | C=CC(=O)Nc1cc(Nc2ncc(Cl)c(Nc3ccccc3P(C)(C)=O)n2)c(OC)cc1N1CCC(N(C)C)C1 (stereo not drawn) [Example 24, N-(5-((5-chloro-4-((2-(dimethylphosphoryl)phenyl)amino)pyrimidin-2-yl)amino)-2-(3-(dimethylamino)pyrrolidin-1-yl)-4-methoxyphenyl)acrylamide] | ≥ 250 |
| < 50 | < 50 | < 50 | < 50 | < 50 | C=CC(=O)Nc1cc(Nc2ncc(Cl)c(Nc3ccccc3P(C)(C)=O)n2)c(OC)cc1N1CCCN(C)CC1 [Example 25, N-(5-((5-chloro-4-((2-(dimethylphosphoryl)phenyl)amino)pyrimidin-2-yl)amino)-4-methoxy-2-(4-methyl-1,4-diazepan-1-yl)phenyl)acrylamide] | ≥ 250 |
| < 50 | < 50 | < 50 | 50 to 100 | 101 to 250 | C=CC(=O)Nc1cc(Nc2ncc(Cl)c(Nc3ccccc3P(C)(C)=O)n2)c(OC)cc1N1CCN(C2CCN(C)CC2)CC1 [Example 27, N-(5-((5-chloro-4-((2-(dimethylphosphoryl)phenyl)amino)pyrimidin-2-yl)amino)-4-methoxy-2-(4-(1-methylpiperidin-4-yl)piperazin-1-yl)phenyl)acrylamide] | ≥ 250 |
| < 50 | < 50 | < 50 | < 50 | < 50 | C=CC(=O)Nc1cc(Nc2ncc(Cl)c(Nc3ccccc3P(C)(C)=O)n2)c(OC)cc1N1CCC(N2CCOCC2)C1 (stereo not drawn) [Example 28, N-(5-((5-chloro-4-((2-(dimethylphosphoryl)phenyl)amino)pyrimidin-2-yl)amino)-4-methoxy-2-(3-morpholinopyrrolidin-1-yl)phenyl)acrylamide] | ≥ 250 |
| < 50 | < 50 | < 50 | < 50 | < 50 | C=CC(=O)Nc1cc(Nc2ncc(Cl)c(Nc3ccccc3P(C)(C)=O)n2)c(OC)cc1N1CCCC(N(C)C)C1 (stereo not drawn) [Example 30, N-(5-((5-chloro-4-((2-(dimethylphosphoryl)phenyl)amino)pyrimidin-2-yl)amino)-2-(3-(dimethylamino)piperidin-1-yl)-4-methoxyphenyl)acrylamide] | ≥ 250 |
